Data: paper doi:10.1101/415984v3 (biorxiv, 2018)

Experiments:
[1] = target: T1, dFABP (Drosophila brain-type FABP) (Drosophila melanogaster, UniProt Q9VGM2); test: intrinsic tyrosine fluorescence melting; type: binding; conditions: GuHCl-purified dFABP; protein:OA 1:2; 20 mM Tris pH 8.0, 1 mM beta-ME
T1 sequence (Q9VGM2 1-130): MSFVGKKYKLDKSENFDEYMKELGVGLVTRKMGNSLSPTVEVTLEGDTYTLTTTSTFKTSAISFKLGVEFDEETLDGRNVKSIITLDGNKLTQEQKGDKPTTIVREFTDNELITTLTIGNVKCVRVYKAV

[2] = target: T1, dFABP (Drosophila brain-type FABP); test: isothermal titration calorimetry; type: binding

## CCCCCCCC/C=C\CCCCCCCC(=O)O [OA, oleic acid]
[1]
  change in Tm: ~ 5 °C
[2]
  Kd: ~1600 nM
